Source: PubChem BioAssay (NCI)
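Five compound concentrations were applied to cells in 96-well plates for 48 hours; endpoints were derived by simple linear interpolation of the resulting dose-response curve. The concentration for 50% growth inhibition is given as GI50. The concentration for full growth arrest is given as TGI.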

Experiments:
Test in all cases: DTP human tumour cell line panel, 48 h
TK-10 renal = tested on: TK-10 renal
SK-MEL-28 melanoma = tested on: SK-MEL-28 melanoma
OVCAR-5 ovarian = tested on: OVCAR-5 ovarian
HCT-116 colon = tested on: HCT-116 colon
NCI-H460 lung = tested on: NCI-H460 lung
NCI-H23 lung = tested on: NCI-H23 lung
MOLT-4 leukemia = tested on: MOLT-4 leukemia
786-0 renal = tested on: 786-0 renal
HCT-15 colon = tested on: HCT-15 colon
OVCAR-3 ovarian = tested on: OVCAR-3 ovarian

Compound | TGI (TK-10 renal) [µM] | TGI (SK-MEL-28 melanoma) [µM] | TGI (OVCAR-5 ovarian) [µM] | TGI (HCT-116 colon) [µM] | TGI (NCI-H460 lung) [µM] | TGI (NCI-H23 lung) [µM] | TGI (MOLT-4 leukemia) [µM] | TGI (786-0 renal) [µM] | TGI (HCT-15 colon) [µM] | TGI (OVCAR-3 ovarian) [µM] | GI50 (TK-10 renal) [µM] | GI50 (SK-MEL-28 melanoma) [µM] | GI50 (OVCAR-5 ovarian) [µM] | GI50 (HCT-116 colon) [µM] | GI50 (NCI-H460 lung) [µM] | GI50 (NCI-H23 lung) [µM] | GI50 (MOLT-4 leukemia) [µM] | GI50 (786-0 renal) [µM] | GI50 (HCT-15 colon) [µM] | GI50 (OVCAR-3 ovarian) [µM]
CCOC1C=CCCO1 (configuration not stated) | > 100 | > 100 | > 100 | > 100 | > 100 | > 100 | > 100 | > 100 | > 100 | > 100 | – | – | – | – | – | – | – | – | – | –
COc1ccc(/C=C/C(=O)c2cc3c(N)c(C(=O)Nc4ccccc4)sc3nc2C)cc1 | > 50 | > 45.1 | > 50 | 5.1 | – | – | > 50 | > 16 | 8.53 | 0.791 | 1.27 | 2.16 | 0.385 | 0.189 | 0.195 | 0.227 | 0.318 | 0.276 | 0.205 | 0.146
Cc1cc(=O)oc2cc(OCc3nc4ccccc4c(=O)[nH]3)ccc12 | > 100 | > 100 | > 100 | > 100 | > 100 | > 100 | > 100 | > 100 | > 100 | > 100 | – | – | – | – | – | – | – | – | – | –
COc1cc(/C=C/C(=O)c2c(C)n([O-])c3ccc(Cl)cc3[n+]2=O)cc(OC)c1OC | 97.7 | > 100 | > 100 | > 100 | > 100 | > 100 | > 100 | > 100 | > 100 | > 100 | 26.5 | > 100 | > 100 | 76 | 56.6 | 50.5 | > 100 | 33.1 | > 100 | > 100
Cc1ccc(/C=C2\CCCC\C2=N\O)cc1 | > 100 | > 100 | – | > 100 | > 100 | > 100 | – | > 100 | > 100 | > 100 | – | – | – | – | – | – | – | – | – | –
O=C1CCCC1NC(=O)C(F)(F)F (configuration not stated) | > 100 | > 100 | > 100 | > 100 | > 100 | > 100 | > 100 | > 100 | – | > 100 | – | – | – | – | – | – | – | – | – | –
CC(C)C[C@@H]1NC(=O)[C@@H]2CCCN2C(=O)[C@@H]2CCCN2C(=O)[C@H](CC(C)C)NC(=O)[C@H](CO)NC(=O)[C@H](CCCCN)NC(=O)[C@H]([C@H](C)O)NC(=O)[C@@H]2CCCC[C@@H](NC1=O)C(=O)N[C@@H](Cc1ccccc1)C(=O)N1CCC[C@H]1C(=O)N[C@@H](CC(=O)O)C(=O)NCC(=O)N[C@@H](CCCN=C(N)N)C(=O)N2 | > 50 | > 50 | > 50 | > 50 | > 50 | > 50 | > 50 | > 50 | > 50 | > 50 | > 50 | > 50 | > 50 | > 50 | > 50 | > 50 | > 50 | > 50 | > 50 | > 50
C/C(=C\CC[C@]1(C)OC(C)(C)OC1CC/C(C)=C/CO[Si](c1ccccc1)(c1ccccc1)C(C)(C)C)CC/C=C/CO[Si](C)(C)C(C)(C)C (some centres not stated) | > 100 | > 100 | > 100 | > 100 | > 100 | > 100 | > 100 | > 100 | > 100 | > 100 | – | – | – | – | – | – | – | – | – | –
C[CH2][Sn]([Cl])([Cl])[CH2]C | 32.4 | 36.3 | > 100 | > 100 | > 100 | 41.4 | > 94.5 | > 56 | > 60.9 | > 100 | 18.3 | 19.8 | > 100 | > 63.4 | > 64.3 | 19.9 | 29 | 28.9 | > 43.2 | 98
CC1=NN(C(=O)c2ccc(Cl)cc2)C(=O)/C1=C/c1ccc(O)cc1 | > 100 | > 100 | > 100 | > 100 | > 100 | > 100 | > 100 | > 100 | > 100 | > 100 | – | – | – | – | – | – | – | – | – | –
O=C(/C=C/c1ccc(C(F)(F)F)cc1)c1ccc(Nc2nc(NCCO)nc(N3CCOCC3)n2)cc1 | – | 11.5 | 3.97 | 2.74 | 4.44 | 6.97 | 9.05 | 3.1 | 4.82 | 3.79 | – | 3.25 | 1.74 | 1.43 | 2.15 | 2.55 | 2.45 | 1.65 | 1.89 | 1.96
COc1ccc2c(c1)CC1c3c(cc4c(c3-2)OCO4)CCN1C (configuration not stated) | 71.3 | 95.8 | > 100 | 70.6 | 60.4 | 73.9 | 64.9 | > 100 | > 100 | 88.4 | – | – | – | – | – | – | – | – | – | –
CC12CC3CC(C1)CC(N=[N+]=[N-])(C3)C2 | > 100 | > 100 | > 100 | > 100 | > 100 | > 100 | > 100 | > 100 | – | > 100 | – | – | – | – | – | – | – | – | – | –
N#CC(C#N)=C1SCC(=O)CS1 | > 100 | – | > 100 | > 100 | > 100 | > 100 | > 100 | > 100 | > 100 | > 100 | – | – | – | – | – | – | – | – | – | –
CCOC(=O)NC(=O)c1cn(CCN2CCN(C(=O)NCCCCCCNC(=O)N3CCN(CCn4cc(C(=O)NC(=O)OCC)c(=O)n(CCN(CC)CC)c4=O)CC3)CC2)c(=O)n(CCC(CC)CC)c1=O | > 100 | > 100 | > 100 | > 100 | > 100 | > 100 | – | > 100 | > 100 | > 100 | – | – | – | – | – | – | – | – | – | –
COc1cc([N+](=O)[O-])c(OC)cc1-c1nc2sc(Cl)cn2c1/C=N/NC(=N)N/N=C/c1c(-c2cc(OC)c([N+](=O)[O-])cc2OC)nc2sc(Cl)cn12 | – | > 100 | 3.16 | 3.15 | 7.13 | – | – | 3.29 | 22.5 | – | – | 3.19 | 1.71 | 1.76 | 2.57 | – | – | 1.84 | 4.54 | –
